Source: paper PMC8838460, “Expression, Purification, and Comparative Inhibition of Helicobacter pylori Urease by Regio-Selectively Alkylated Benzimidazole 2-Thione Derivatives” (Molecules, 2022)
Like-named read-outs stand apart in the source and are kept apart here.

Assays:
Mouse = system: Mouse; parameters: method as in earlier work; settings: TOPKAT structural similar compounds; ref CPDB; cited from earlier work
Rat [1] = settings: TOPKAT structural similar compounds, cited from earlier work
Rat [2] = settings: TOPKAT structural similar compounds; ref CPDB; cited from earlier work
fibroblast cells = assay: In vitro cytotoxicity, neutral red assay on fibroblast cells; assay type: cell-based; settings: for inhibition at 0.003 µM: Conc. 0.003 µM; for inhibition at 0.007 µM: Conc. 0.007 µM; for inhibition at 0.015 µM: Conc. 0.015 µM; for inhibition at 0.031 µM: Conc. 0.031 µM; for inhibition at 0.064 µM: Conc. 0.064 µM; for inhibition at 0.123 µM: Conc. 0.123 µM; for cytotoxicity (in words): in high concentrations
Procedure: The active compounds were selected and subjected to cytotoxicity evaluation using the neutral red assay. Cytotoxic assays were performed according to Borenfreund and Puerner.

H. pylori Urease = H. pylori Urease (Helicobacter pylori, UniProt P69996); assay: Urease inhibition assay (indophenol method) on recombinant H. pylori urease; assay type: biochemical; settings: for Type of inhibition (in words): H. pylori urease; for Vmax: H. pylori urease with inhibitor
Chain of H. pylori Urease (P69996 whole entry): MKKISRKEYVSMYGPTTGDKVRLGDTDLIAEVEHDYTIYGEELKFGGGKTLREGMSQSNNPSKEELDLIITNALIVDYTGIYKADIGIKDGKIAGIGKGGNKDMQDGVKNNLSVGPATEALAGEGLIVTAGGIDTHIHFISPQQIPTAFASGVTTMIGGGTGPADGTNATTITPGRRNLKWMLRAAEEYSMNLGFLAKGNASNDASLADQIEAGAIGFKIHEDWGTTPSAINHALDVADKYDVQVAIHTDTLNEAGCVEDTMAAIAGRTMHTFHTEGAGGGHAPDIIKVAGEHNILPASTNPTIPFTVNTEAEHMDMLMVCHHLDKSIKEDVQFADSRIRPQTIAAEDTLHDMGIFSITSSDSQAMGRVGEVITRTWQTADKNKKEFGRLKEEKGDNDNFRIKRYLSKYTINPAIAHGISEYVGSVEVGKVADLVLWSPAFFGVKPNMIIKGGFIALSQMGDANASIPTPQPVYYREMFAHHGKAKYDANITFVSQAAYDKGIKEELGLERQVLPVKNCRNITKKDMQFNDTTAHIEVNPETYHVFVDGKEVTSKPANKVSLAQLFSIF
Chain of H. pylori Urease (P14916 whole entry, further chain): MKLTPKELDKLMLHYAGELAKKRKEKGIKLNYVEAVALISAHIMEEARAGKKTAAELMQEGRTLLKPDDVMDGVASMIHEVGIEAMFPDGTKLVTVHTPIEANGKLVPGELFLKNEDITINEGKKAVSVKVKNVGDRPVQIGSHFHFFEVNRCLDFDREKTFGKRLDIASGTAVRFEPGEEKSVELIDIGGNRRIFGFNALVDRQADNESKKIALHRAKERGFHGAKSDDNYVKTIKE
Procedure: (§1) Reaction mixtures comprising 25 μL of urease enzymes solution and 55 μL of sodium phosphate buffers containing 100 mM urea were incubated with 5 μL of tested compounds above (0.5 mM concentration) at 30 °C for 15 min in 96-well plates. Urease activity was determined by measuring the ammonia production using the indophenol method as described by Weatherburn. Briefly, 45 μL of each phenol reagent (1% w/v phenol and 0.005% w/v sodium nitroprussside) and 70 μL of alkali reagent (0.5% w/v NaOH and 0.1% active chloride NaOCl) were added to each well. The absorbance at 630 nm was measured after 50 min using a microplate reader (SPECTRO star Nano, Ortenberg, Germany). All reactions were performed in triplicate in a final volume of 200 μL. The results (change in absorbance per min) were processed by using MARS Data Analysis Version 2.41, software (SPECTRO star Nano, Ortenberg, Germany).
(§2) The assays were performed at pH 6.8. The percentage of inhibitions were calculated from the formula 100 − (ODtest well/ODcontrol) × 100. Thiourea was used as the standard inhibitor of Urease.
(§3) The concentrations of the test compounds that inhibited the hydrolysis of substrates by 50% (IC50) were determined by monitoring the effect of various concentrations of these compounds in the assays on the inhibition values. The IC50 values were then calculated using Graph Pad Prism 6 software.

J. bean Urease = molecular target: T1, J. bean Urease (Canavalia ensiformis, UniProt P07374); assay: Urease inhibition assay (indophenol method) on commercial Jack bean urease; assay type: biochemical; settings: for Type of inhibition (in words): J. bean urease; for Vmax: J. bean urease with inhibitor
T1 construct: purchased
T1 sequence (P07374 whole entry, looked up): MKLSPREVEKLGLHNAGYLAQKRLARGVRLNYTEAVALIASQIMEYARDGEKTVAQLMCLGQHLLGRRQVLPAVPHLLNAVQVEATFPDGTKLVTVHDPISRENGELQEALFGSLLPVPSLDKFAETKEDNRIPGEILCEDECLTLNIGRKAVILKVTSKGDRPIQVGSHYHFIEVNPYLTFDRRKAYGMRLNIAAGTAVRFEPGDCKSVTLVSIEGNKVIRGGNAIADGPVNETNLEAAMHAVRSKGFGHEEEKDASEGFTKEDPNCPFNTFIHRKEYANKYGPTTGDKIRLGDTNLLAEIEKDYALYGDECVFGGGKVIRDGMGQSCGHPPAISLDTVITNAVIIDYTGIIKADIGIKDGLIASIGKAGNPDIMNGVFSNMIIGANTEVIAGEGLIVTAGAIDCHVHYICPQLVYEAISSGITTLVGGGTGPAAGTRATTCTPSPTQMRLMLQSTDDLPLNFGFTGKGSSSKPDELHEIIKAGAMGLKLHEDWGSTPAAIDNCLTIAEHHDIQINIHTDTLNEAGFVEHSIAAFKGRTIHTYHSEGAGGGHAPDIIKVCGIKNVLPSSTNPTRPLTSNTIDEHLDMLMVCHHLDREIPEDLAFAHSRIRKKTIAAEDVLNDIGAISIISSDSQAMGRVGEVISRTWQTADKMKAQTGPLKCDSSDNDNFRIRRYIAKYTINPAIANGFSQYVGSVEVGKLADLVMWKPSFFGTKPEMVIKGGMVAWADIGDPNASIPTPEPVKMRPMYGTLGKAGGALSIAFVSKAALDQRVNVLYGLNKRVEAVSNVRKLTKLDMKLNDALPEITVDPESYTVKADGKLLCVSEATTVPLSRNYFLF
Procedure: as §1, §2, §3

CCOCSc1nc2ccccc2n1COCC
melting point: 108 °C

CCCCCCCCCCCSc1nc2ccccc2[nH]1
melting point: 104 °C

CCOC(CSc1nc2ccccc2[nH]1)OCC
melting point: 80 °C

CC(=O)NN [Monoacetyl hydrazine]
Actual Endpoint (-log C), Carcinogenic Potency TD50 Mouse (Mouse): 3.876 -log C

c1ccc2[nH]c(SCC3CO3)nc2c1 (stereo not drawn)
melting point: 211 °C

CC(O)CN (stereo not drawn) [1-AMINO-2-PROPANOL]
Actual Endpoint (-log C), Rat Oral LD50 (Rat [1]; ref JACTDZ 6(1);53;87): 1.554 -log C

Sc1nc2ccccc2s1 [2-Mercaptobenzothiazole]
Actual Endpoint (-log C), Carcinogenic Potency TD50 Rat (Rat [2]): 2.687 -log C

NC(=S)Nc1ccccc1 [1-PHENYL-2-THIOUREA]
Actual Endpoint (-log C), Rat Oral LD50 (Rat [1]; ref JMPCAS 4;109;61): 4.705 -log C

O=c1ccc(=O)[nH][nH]1 [MALEIC HYDRAZIDE]
Actual Endpoint (-log C), Rat Oral LD50 (Rat [1]; ref WRPCA2 9;119;70): 1.47 -log C

CCOc1ccc(NC(C)=O)cc1 [Phenacetin, reference compound]
Actual Endpoint (-log C), Carcinogenic Potency TD50 Rat (Rat [2]): 2.156 -log C

CNN [METHYLHYDRAZINE]
Actual Endpoint (-log C), Rat Oral LD50 (Rat [1]; ref XAWPA2 CWL): 3.158 -log C

N#CCSc1nc2ccccc2n1CC#N
melting point: 161 to 163 °C

CC(=N)S [Thioacetamide]
Actual Endpoint (-log C), Carcinogenic Potency TD50 Rat (Rat [2]): 3.815 -log C

Cc1ccc(NC(N)=O)cc1 [p-Tolylurea]
Actual Endpoint (-log C), Carcinogenic Potency TD50 Mouse (Mouse): 2.863 -log C

Oc1ccccc1O [Catechol]
Actual Endpoint (-log C), Carcinogenic Potency TD50 Mouse (Mouse): 2.654 -log C

CC(C)(Oc1ccc(C2CC2(Cl)Cl)cc1)C(=O)O (stereo not drawn) [Ciprofibrate, reference compound]
Actual Endpoint (-log C), Carcinogenic Potency TD50 Mouse (Mouse): 4.669 -log C

CCCCSc1nc2ccccc2[nH]1
melting point: 145 °C

CC(O)CSc1nc2ccccc2[nH]1 (stereo not drawn)
melting point: 250 °C

NC(=O)Nc1ccccc1
Actual Endpoint (-log C), Rat Oral LD50 (Rat [1]; ref IIFBA4 12;195;69): 1.833 -log C

O=Nc1ccc(Nc2ccccc2)cc1 [p-Nitrosodiphenylamine]
Actual Endpoint (-log C), Carcinogenic Potency TD50 Rat (Rat [2]): 2.994 -log C

CCOCn1c(=S)[nH]c2ccccc21 [Compound 5, 1-(Ethoxymethyl)-1H-benzo[d]imidazole-2(3H)-thione]
inhibition at 0.003 µM (fibroblast cells; fibroblast cells): -28.8% | inhibition at 0.007 µM (fibroblast cells; fibroblast cells): -15.9% | inhibition at 0.009 µM (fibroblast cells; fibroblast cells, Conc. 0.009 µM, read-out: % Inhibition): -61.2% | inhibition at 0.015 µM (fibroblast cells; fibroblast cells): 4.6% | inhibition at 0.031 µM (fibroblast cells; fibroblast cells): 26.2% | inhibition at 0.064 µM (fibroblast cells; fibroblast cells): 52.1% | inhibition at 0.123 µM (fibroblast cells; fibroblast cells): 53.5% | cytotoxicity (in words) (fibroblast cells; fibroblast cells): not cytotoxic | Type of inhibition (in words) (H. pylori Urease): uncompetitive | Vmax (H. pylori Urease): 1.52 ± 0.024 µmol/min | IC50 (J. bean Urease): 290 ± 18 µM | Type of inhibition (in words) (J. bean Urease): non-competitive | Vmax (J. bean Urease): 1.60 ± 0.04 µmol/min

Sc1nc2ccccc2[nH]1 [Compound 2, 1H-Benzimidazole-2(3H)-thione]
inhibition at 0.009 µM (fibroblast cells; Fibroblast): 20% | inhibition at 0.003 µM (fibroblast cells; fibroblast cells): 40.4% | inhibition at 0.007 µM (fibroblast cells; fibroblast cells): 44% | inhibition at 0.015 µM (fibroblast cells; fibroblast cells): 49.4% | inhibition at 0.031 µM (fibroblast cells; fibroblast cells): 49.5% | inhibition at 0.064 µM (fibroblast cells; fibroblast cells): 80.6% | inhibition at 0.123 µM (fibroblast cells; fibroblast cells): 82.5% | cytotoxicity (in words) (fibroblast cells; fibroblast cells): not cytotoxic | Type of inhibition (in words) (H. pylori Urease): non-competitive | Vmax (H. pylori Urease): 1.54 ± 0.057 µmol/min | IC50 (J. bean Urease): 260 ± 8 µM | Type of inhibition (in words) (J. bean Urease): non-competitive | Vmax (J. bean Urease): 1.53 ± 0.005 µmol/min

CCOc1ccccc1C(N)=O [o-Ethoxybenzamide]
Actual Endpoint (-log C), Carcinogenic Potency TD50 Mouse (Mouse): 2.508 -log C

Cc1cccc(NC(N)=O)c1 [m-TOLYLUREA]
Actual Endpoint (-log C), Rat Oral LD50 (Rat [1]; ref IIFBA4 12;195;69): 2.053 -log C

Methylhydrazine s
Actual Endpoint (-log C), Carcinogenic Potency TD50 Mouse (Mouse): 3.785 -log C

OCCCSc1nc2ccccc2[nH]1
melting point: 119 °C

S=C1NCCC(COc2ccccc2)O1 (stereo not drawn) [TIFEMOXONE, reference compound]
Actual Endpoint (-log C), Rat Oral LD50 (Rat [1]; ref ATSUDG 1;229;78): 2.006 -log C

CC(=O)Nc1ccc(O)cc1 [Acetaminophen, reference compound]
Actual Endpoint (-log C), Carcinogenic Potency TD50 Rat (Rat [2]): 2.485 -log C

CC(N)=O [Acetamide]
Actual Endpoint (-log C), Carcinogenic Potency TD50 Mouse (Mouse): 1.293 -log C | Actual Endpoint (-log C), Carcinogenic Potency TD50 Rat (Rat [2]): 2.516 -log C
